Experimental data taken from patent publication US7465848B2, “Zebrafish assay” (priority 2002, dated 2008).

Assays:
zebrafish = settings: for effect on zebrafish heart rate (bradycardia) in the initial screen: compound added to medium at 48 hpf, 1, 10, 100 mcg/ml, highest non-lethal concentration, ventricular rate
Method: TubingenAB zebrafish embryos were reared in E3 Media (5 mM NaCl, 0.17 mM KCl, 0.33 mM MgCl2, 0.33 mM CaCl2). At 24 hours post fertilization (hpf) the embryos were distributed into 96 well plates, 3-5 embryos per well with […] of E3 supplemented with phenylthiourea at 0.03 g/l to inhibit pigmentation.
DMSO alone was used as a control. HR measurement: 15 second video recordings were obtained from each well using a Nikon TE200 microscope fitted with a computer controlled stage, and a Hamamatsu ORCA-ER camera. One hundred twenty-eight frames with an exposure time of 90 ms were recorded for each video. Digital movies were taken for each well, one from each quadrant. These video clips were stored digitally.
Offline analysis was performed with commercially available imaging software (Metamorph Software, Universal Imaging). The average pixel density was measured for a region of interest over the heart, and these densities were plotted against time. […] The frequency spectrum was plotted and the peak was reported in a spreadsheet. Manual review of both time domain and frequency domain data as well as the peak frequency was performed to ensure the validity of the data. Fast-Fourier Transform was performed to determine HR. […] Each compound was tested at 1, 10, and 100 mcg/ml and the highest, non-lethal concentration chosen for HR effect. A two-tailed Student's t-test was performed to determine statistical significance.

zebrafish KCNH2 = test: Zebrafish KCNH2 knock-down with antisense morpholino, heart rate; type: in vivo, Danio rerio; settings: about 5 nL injected at the single cell stage
Method: Approximately 5 nL of the morpholino antisense oligonucleotide diluted in Danieau's solution at the concentrations shown were injected into the zebrafish embryo at the single cell stage. The zebrafish KCNH2 morpholino was directed against the splice donor site of the sixth exon of the zebrafish KCNH2 ortholog (5′-[…]-3′; SEQ ID NO:2).

CCN(CC)CCNC(=O)c1ccc(NC(C)=O)cc1 [N-acetyl-procainamide]
effect on zebrafish heart rate (bradycardia) in the initial screen (zebrafish): failed to cause bradycardia

CC(=O)N1CCN(c2ccc(OCC3COC(Cn4ccnc4)(c4ccc(Cl)cc4Cl)O3)cc2)CC1 (centres unmarked) [ketoconazole]
drug-drug interaction on HR, ketoconazole and terfenadine (zebrafish; in vivo): faithfully reproduced

5′-CCGTCGTACAGGCATGTTGTCCTA-3′ (all phosphorodiamidate morpholino (PMO)) [antisense morpholino]
effect of KCNH2 antisense morpholino on zebrafish heart rate (zebrafish KCNH2): elicited bradycardia in a dose-dependent manner
effect of KCNH2 antisense morpholino on zebrafish heart rate (zebrafish KCNH2; listed as antisense morpholino oligonucleotides directed against zebrafish KCNH2): dose-dependent effect on HR

COc1cc(N)c(Cl)cc1C(=O)NC1CCN(CCCOc2ccc(F)cc2)CC1OC (centres unmarked) [cisapride]
change of ED50 on HR for cisapride with increasing doses of erythromycin (zebrafish; cisapride in combination with erythromycin (FIG. 2C)): ten-fold decrease

CN/C(=N/CCSCc1nc[nH]c1C)NC#N [cimetidine]
drug-drug interaction on HR, cimetidine and terfenadine (zebrafish; in vivo): interaction of cimetidine and terfenadine

CC[C@H]1OC(=O)[C@H](C)[C@@H](O[C@H]2C[C@@](C)(OC)[C@@H](O)[C@H](C)O2)[C@H](C)[C@@H](O[C@@H]2O[C@H](C)C[C@H](N(C)C)[C@H]2O)[C@](C)(O)C[C@@H](C)C(=O)[C@H](C)[C@@H](O)[C@]1(C)O [erythromycin]
absorption into the zebrafish embryo (zebrafish; in vivo): is absorbed

N=C(N)c1ccc(OCCCCCOc2ccc(C(=N)N)cc2)cc1 [pentamadine]
effect on zebrafish heart rate (bradycardia) in the initial screen (zebrafish): failed to cause bradycardia
